# Source: patent US20100184770A1, “COMPOUNDS” (Glaxo Group Limited, priority 2006, published 2010)
# Key:
# human H1 receptor [1] = molecular target: T1, human H1 receptor (Homo sapiens, UniProt P35367); test: Histamine H1 functional antagonist assay: determination of antagonist pA2 (FLIPR); type: cell-based
# T1 construct: expressed in transfected cells
# Method: (§1) 1. Generation of Histamine H1 Cell Line The human H1 receptor is cloned using known procedures described in the literature [Biochem. Biophys. Res. Commun., 201(2):894 (1994)]. Chinese hamster ovary (CHO) cells stably expressing the human H1 receptor are generated according to known procedures described in the literature [Br. J. Pharmacol., 117(6):1071 (1996)].
# The histamine H1 receptor expressing CHO cells are seeded into non-coated black-walled clear bottom 96-well tissue culture plates as described above. […]
# The plates are then placed into a FLIPR™ (Molecular Devices, UK) to monitor cell fluorescence (λex=488 nm, λEM=540 nm) in the manner described in Sullivan et al., (In: Lambert D G (ed.), Calcium Signaling Protocols, New Jersey: Humana Press, 1999, 125-136) before and after the addition of 50 μl histamine over a concentration range of 1 mM 0.1 nM. […] The antagonist pA2 is calculated using the following standard equation: pA2=log(DR-1)−log [B] where DR=dose ratio, defined as EC50 antagonist-treated/EC50 control and [B]=concentration of antagonist.
# human H1 receptor [2] = molecular target: T1, human H1 receptor; test: Histamine H1 functional antagonist assay: determination of antagonist duration (washout, FLIPR); type: cell-based; details: at one or more time points after washout
# Method: as §1
# To determine the antagonist duration, cells are cultured overnight in non-coated black-walled clear bottom 96-well tissue culture plates, are washed with PBS and are incubated with a concentration of antagonist chosen to give an approximate DR in the range 30-300. Following the 30 min antagonist incubation period, the cells are washed two or three times with 200 μl of PBS and then 100 μl Tyrodes buffer is added to each well to initiate antagonist dissociation. Following incubation for predetermined times, typically 30-270 min at 37° C., the cells are then washed again with 200 μl PBS and are incubated with 100 Tyrodes buffer containing Brilliant Black, probenecid and Fluo-4 for 45 min at 37° C., as described above. After this period, the cells are challenged with histamine in the FLIPR™ as described above. The dose ratio at each time point is used to determine the fractional H1 receptor occupancy by the following equation: fractional receptor occupancy=(DR-1)/DR. The decrease in receptor occupancy over time approximates to a straight line and is analysed by linear regression. The slope of this straight line fit is used as an index of the dissociation rate of the antagonist. The dose ratios for antagonist treated cells and for antagonist treated and washed cells at each time point are used to calculate a relative dose ratio (rel DR) which is also used as an index of antagonist duration. Antagonists with long duration of action produce rel DR values close to 1, and antagonists with short duration of action produce rel DR values that approaches the dose ratio value obtained for antagonist treatment alone.
# T1 sequence (P35367 whole entry): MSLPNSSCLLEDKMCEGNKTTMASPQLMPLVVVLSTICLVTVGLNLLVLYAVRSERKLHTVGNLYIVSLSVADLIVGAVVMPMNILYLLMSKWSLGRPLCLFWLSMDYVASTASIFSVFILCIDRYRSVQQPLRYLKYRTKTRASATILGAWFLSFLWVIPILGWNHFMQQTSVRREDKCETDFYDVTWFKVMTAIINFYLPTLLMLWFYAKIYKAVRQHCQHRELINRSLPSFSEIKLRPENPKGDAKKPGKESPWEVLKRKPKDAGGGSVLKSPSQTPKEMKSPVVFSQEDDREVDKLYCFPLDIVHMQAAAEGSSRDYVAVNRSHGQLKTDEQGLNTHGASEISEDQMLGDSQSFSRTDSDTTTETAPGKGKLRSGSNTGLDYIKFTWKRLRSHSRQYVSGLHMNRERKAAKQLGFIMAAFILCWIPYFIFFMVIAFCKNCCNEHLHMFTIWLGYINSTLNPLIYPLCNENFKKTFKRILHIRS
SMILES,Kb (human H1 receptor [1]) [nM],duration of action compared with azelastine in the histamine H1 functional antagonist assay (human H1 receptor [2])
"Cl.O=C(CC(F)(F)F)NCCN1CCC[C@@H]1Cn1nc(Cc2ccc(Cl)cc2)c2ccccc2c1=O [Example 36a, N-[2-((2R)-2-{[4-[(4-Chlorophenyl)methyl]-1-oxo-2(1H)-phthalazinyl]methyl}-1-pyrrolidinyl)ethyl]-3,3,3-trifluoropropanamide, hydrochloride]",< 10,longer duration of action than azelastine
"COCCC(=O)NCCN1CCC[C@@H]1Cn1nc(Cc2ccc(Cl)cc2)c2ccccc2c1=O.O=CO [Example 35, N-[2-((2R)-2-{[4-[(4-Chlorophenyl)methyl]-1-oxo-2(1H)-phthalazinyl]methyl}-1-pyrrolidinyl)ethyl]-3-(methyloxy)propanamide, formate salt]",< 10,longer duration of action than azelastine
